One experiment concerns L. bulgaricus DPC5383. As to the kind of experiment: Well diffusion assay (WDA) of purified nisin peptides and CFS. In kind it is cell-based, Lactobacillus delbrueckii ssp. bulgaricus. More on the design: dose or concentration left out as unconfirmed. Conditions: semi-pure nisin G and pure nisin A. The protocol: The culture was centrifuged at 7,871 g for 20 minutes and cells separated from the supernatant. The cell pellet was resuspended in 300 ml of 70% 2 propanol 0.1% TFA (IPA) and stirred at room temperature for 3-4 hours. The resulting suspension was centrifuged again, and the supernatant retained for purification of the antimicrobial. […] The IPA was removed by rotary evaporation and the sample applied to a 12 ml, 2 g Strata-E C18 SPE column pre-equilibrated (Phenomenex, Cheshire, UK) with methanol and water. The column was washed with 24 ml 30% ethanol and then 24 ml 70% 2-propanol 0.1% TFA. […] The IPA was removed from the C18 SPE IPA eluent by rotary evaporation (Buchi Labortechnik AG; Flawil, Switzerland) and the resulting sample applied to a semi prep Jupiter Proteo (10×250 mm, […], 90 Å) Reversed Phase HPLC column running a 30-50% acetonitrile 0.1% TFA gradient at 2.5 mL/min where buffer A was 0.1% TFA and buffer B was 100% acetonitrile 0.1% TFA. […] Bioactive fractions were pooled and lyophilized using a Genevac lyophiliser (Suffolk, UK).
Background: A growth-free zone around the sample is the usual read-out of agar diffusion tests.

The test system of a further experiment is F. nucleatum DSM15643. Description: Well diffusion assay (WDA) of purified nisin peptides. In kind it is cell-based, Fusobacterium nucleatum. More on the design: dose or concentration left out as unconfirmed.

Ends that are not written are not given here.

Turning to nisin G, in the experiment with L. bulgaricus DPC5383, the “Antimicrobial activity, comparison of size of zones of inhibition (in words)” value is recorded as “less than nisin A”. Besides, in the experiment on F. nucleatum DSM15643, the “Zone of inhibition (area of zone of inhibition minus area of well)” value was determined as 37.7 mm^2.

As for “nisin A (ITSISLCTPGCKTGALMGCNMKTATCHCSIHVSK; also: lantibiotic, modified residues and rings not given here; UniProt P13068 24-57, looked up) [prototypical broad spectrum lantibiotic, purified from nisinA®P (Handary) by reversed phase HPLC, reference compound]”, the “Zone of inhibition (area of zone of inhibition minus area of well)” value with F. nucleatum DSM15643 came out at 395.8 mm^2.

The values are drawn from US20250129328A1, “AN ISOLATED S. SALIVARIUS STRAIN AND ITS USE AS AN ANTIMICROBIAL PRODUCING PROBIOTIC” (priority 2021, published 2025).
